Experimental data: ChEMBL document CHEMBL1201862, “PubChem BioAssay data set” (2004)
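Protocol summary: plate cells (96-well), add compound at 5 concentrations, incubate 48 h, interpolate endpoints linearly. GI50 = concentration required for 50% inhibition of growth.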 Activity calls are given as the source filed them. No stated cut-off is given here; in the data, active = GI50 up to about 1.1 µM and inactive = higher.

Columns and labels:
Assay in all cases: inhibition of tumour cell growth, NCI panel, 48 h
MDA-MB-231 = test system: MDA-MB-231
MCF7 = test system: MCF7
EKVX = test system: EKVX
Malme-3M = test system: Malme-3M
RPMI-8226 = test system: RPMI-8226
OVCAR-3 = test system: OVCAR-3
NCI/ADR-RES = test system: NCI/ADR-RES
NCI-H23 = test system: NCI-H23
SN12C = test system: SN12C
OVCAR-8 = test system: OVCAR-8
MOLT-4 = test system: MOLT-4
SF-268 = test system: SF-268
T47D = test system: T47D
SR = test system: SR
HT-29 = test system: HT-29
RXF 393 = test system: RXF 393
OVCAR-5 = test system: OVCAR-5

Row | SMILES | GI50 (MDA-MB-231) | GI50 (MCF7) | GI50 (EKVX) | GI50 (Malme-3M) | GI50 (RPMI-8226) | GI50 (OVCAR-3) | GI50 (NCI/ADR-RES) | GI50 (NCI-H23) | GI50 (SN12C) | GI50 (OVCAR-8) | GI50 (MOLT-4) | GI50 (SF-268) | GI50 (T47D) | GI50 (SR) | GI50 (HT-29) | GI50 (RXF 393) | GI50 (OVCAR-5)
1 | O=c1oc2ccc(Cl)cc2cc1-c1cn2ccsc2n1 | 24.6 µM (inactive) | 20.9 µM (inactive) | 26.6 µM (inactive) | > 100 µM (inactive) | 41.5 µM (inactive) | 40 µM (inactive) | 61.1 µM (inactive) | 51.9 µM (inactive) | 57 µM (inactive) | 29.4 µM (inactive) | 24.4 µM (inactive) | 46.6 µM (inactive) | 34.5 µM (inactive) | 24.8 µM (inactive) | 52.8 µM (inactive) | 45.8 µM (inactive) | 
2 | COC(=O)CCCC(=O)O | > 100 µM (inactive) | > 100 µM (inactive) | > 100 µM (inactive) | > 100 µM (inactive) |  | > 100 µM (inactive) | > 100 µM (inactive) | > 100 µM (inactive) | > 100 µM (inactive) | > 100 µM (inactive) | > 100 µM (inactive) | > 100 µM (inactive) | > 100 µM (inactive) | > 100 µM (inactive) | > 100 µM (inactive) | > 100 µM (inactive) | > 100 µM (inactive)
3 | OCCN(C1=NCCN1)/[N+](=C/c1ccccc1O)[CH-]c1ccccc1O | > 100 µM (inactive) | > 100 µM (inactive) | > 100 µM (inactive) | > 100 µM (inactive) | > 100 µM (inactive) | > 100 µM (inactive) | 83.6 µM (inactive) | > 100 µM (inactive) | > 100 µM (inactive) | > 100 µM (inactive) | > 100 µM (inactive) | > 100 µM (inactive) | > 100 µM (inactive) | > 100 µM (inactive) | > 100 µM (inactive) |  | > 100 µM (inactive)
4 | OCCN(CCO)c1nc(N2CCCCC2)c2nc(N(CCO)CCO)nc(N3CCCCC3)c2n1 [DIPYRIDAMOLE] | 43.3 µM (inactive) | > 10 µM (inactive) | 25.6 µM (inactive) | 20.5 µM (inactive) | > 10 µM (inactive) | 12.4 µM (inactive) | 22 µM (inactive) | 65.3 µM (inactive) | 34 µM (inactive) | 29.2 µM (inactive) | 24.4 µM (inactive) |  | 35.6 µM (inactive) | 3.46 µM (inactive) | 19.5 µM (inactive) |  | 90.8 µM (inactive)
5 | CCc1n[nH]c(=O)n1/N=C/c1ccc(/C=N/n2c(CC)n[nH]c2=O)cc1 | > 100 µM (inactive) | > 100 µM (inactive) | > 100 µM (inactive) | > 100 µM (inactive) | > 100 µM (inactive) | > 100 µM (inactive) | > 100 µM (inactive) | > 100 µM (inactive) | > 100 µM (inactive) | > 100 µM (inactive) | > 100 µM (inactive) | > 100 µM (inactive) | > 100 µM (inactive) |  | > 100 µM (inactive) | > 100 µM (inactive) | > 100 µM (inactive)
6 | CN[C@@H](Cc1cccc2ccccc12)C(=O)N[C@@H](CC(C)C)B(O)O | < 0.01 µM (active) | < 0.01 µM (active) |  | < 0.01 µM (active) | < 0.01 µM (active) | < 0.01 µM (active) | < 0.0224 µM (active) | < 0.01 µM (active) | < 0.01 µM (active) | < 0.014 µM (active) | < 0.01 µM (active) | < 0.01 µM (active) | < 0.01 µM (active) | < 0.01 µM (active) | < 0.01 µM (active) | < 0.01 µM (active) | < 0.01 µM (active)
7 | O=C(Nc1ccccc1)c1cc2ccccc2c(/N=N\c2cccc([N+](=O)[O-])c2)c1O | 56.8 µM (inactive) | > 100 µM (inactive) | 39 µM (inactive) | 7.26 µM (inactive) |  | > 100 µM (inactive) | > 100 µM (inactive) | > 100 µM (inactive) | > 100 µM (inactive) | 78.2 µM (inactive) | > 100 µM (inactive) | 48.6 µM (inactive) | > 100 µM (inactive) | 38.2 µM (inactive) | > 100 µM (inactive) | 47.8 µM (inactive) | > 100 µM (inactive)
8 | CCc1nc(N)nc(N)c1-c1ccc([N+](=O)[O-])c(NCc2ccccc2)c1 | 14.8 µM (inactive) | 13.6 µM (inactive) | 11.2 µM (inactive) |  | 11.6 µM (inactive) | 13.2 µM (inactive) | 10.7 µM (inactive) | 14.5 µM (inactive) | 20 µM (inactive) | 16.5 µM (inactive) | 7.5 µM (inactive) | 14.9 µM (inactive) | 6.47 µM (inactive) | 10.3 µM (inactive) | 7.91 µM (inactive) | 14.4 µM (inactive) | 22.4 µM (inactive)
9 | COc1ccc2c(c1)CCc1c-2n(CCN2CCOCC2)c2ccc(OC)cc12 | > 100 µM (inactive) | 85.5 µM (inactive) |  | 75.2 µM (inactive) | 63.5 µM (inactive) | > 100 µM (inactive) | > 100 µM (inactive) | > 100 µM (inactive) | > 100 µM (inactive) | > 100 µM (inactive) | 12.5 µM (inactive) | > 100 µM (inactive) | > 100 µM (inactive) | 10.5 µM (inactive) | 16.1 µM (inactive) | > 100 µM (inactive) | > 100 µM (inactive)
10 | CCCCCn1c(=O)c2c(=O)[nH][nH]c2c2ccccc21 | > 100 µM (inactive) | > 100 µM (inactive) |  | > 100 µM (inactive) | > 100 µM (inactive) | > 100 µM (inactive) | > 100 µM (inactive) | > 100 µM (inactive) | > 100 µM (inactive) | > 100 µM (inactive) | > 100 µM (inactive) | > 100 µM (inactive) | > 100 µM (inactive) | > 100 µM (inactive) | > 100 µM (inactive) | > 100 µM (inactive) | > 100 µM (inactive)
11 | CC(C)c1c(P(=O)(c2ccccc2)c2ccccc2)n(C)c2ccccc12 | > 100 µM (inactive) | > 100 µM (inactive) | > 100 µM (inactive) | > 100 µM (inactive) | 56.6 µM (inactive) | 26.4 µM (inactive) | 43.1 µM (inactive) | 40.5 µM (inactive) | > 100 µM (inactive) | 89.9 µM (inactive) | 34.8 µM (inactive) | 51.9 µM (inactive) | 77.1 µM (inactive) | 49.9 µM (inactive) | 53.8 µM (inactive) |  | 54.7 µM (inactive)
12 | Cc1ccc(S(=O)(=O)N2CCNCCN(S(=O)(=O)c3ccc(C)cc3)CCNCC2)cc1 | 23.7 µM (inactive) | 27.3 µM (inactive) | 24 µM (inactive) | 17.5 µM (inactive) |  | 14.2 µM (inactive) | 61.1 µM (inactive) | 32.3 µM (inactive) | 29.6 µM (inactive) | 19.2 µM (inactive) |  | 21.8 µM (inactive) | 12.3 µM (inactive) | 16.4 µM (inactive) | 14.1 µM (inactive) | 2.65 µM (inactive) | 43.4 µM (inactive)
13 | CCCCCCCCCCCCCCCCCCNC(=O)C(N)Cc1ccc(OCc2ccccc2)cn1 (centres undefined) | 20.9 µM (inactive) | 19.4 µM (inactive) | 22.6 µM (inactive) | 20.6 µM (inactive) | 18.5 µM (inactive) | 25.4 µM (inactive) | 20 µM (inactive) | 16.8 µM (inactive) | 27.7 µM (inactive) | 15.8 µM (inactive) | 16 µM (inactive) | 21.9 µM (inactive) | 20.4 µM (inactive) |  | 16.8 µM (inactive) | 20 µM (inactive) | 21.1 µM (inactive)
14 | O=C(/C=C/c1ccccc1)N1CCCCC1 | > 100 µM (inactive) | > 100 µM (inactive) | > 100 µM (inactive) |  | > 100 µM (inactive) | > 100 µM (inactive) | > 100 µM (inactive) | > 100 µM (inactive) | > 100 µM (inactive) | > 100 µM (inactive) | > 100 µM (inactive) | > 100 µM (inactive) | > 100 µM (inactive) | > 100 µM (inactive) | > 100 µM (inactive) | > 100 µM (inactive) | > 100 µM (inactive)
15 | CC1CC/C(=C\c2ccc(Cl)cc2)C2OC(N)=C(C#N)C(c3ccc(Cl)cc3)=C12 (centres undefined) | 10.4 µM (inactive) | 11.4 µM (inactive) | 5.55 µM (inactive) | 14.5 µM (inactive) | 7.6 µM (inactive) | 11.7 µM (inactive) | 11.6 µM (inactive) | 13.6 µM (inactive) | 13.7 µM (inactive) | 13.9 µM (inactive) | 4.37 µM (inactive) | 13.2 µM (inactive) | 0.442 µM (active) |  | 6.92 µM (inactive) | 14.6 µM (inactive) | 15.9 µM (inactive)
16 | COC(=O)C1=CC(=O)OC1(OO)c1ccc(Br)cc1 (centres undefined) | > 100 µM (inactive) | > 100 µM (inactive) | > 100 µM (inactive) | > 100 µM (inactive) |  | > 100 µM (inactive) | > 100 µM (inactive) | > 100 µM (inactive) | > 100 µM (inactive) | > 100 µM (inactive) | 31.8 µM (inactive) |  | > 100 µM (inactive) | 55.8 µM (inactive) | 57.4 µM (inactive) | > 100 µM (inactive) | > 100 µM (inactive)
17 | Cc1ccc(OCC2OC(n3cnc4c(Cl)nc(Cl)nc43)CC2Oc2ccc(C)cc2)cc1 (centres undefined) | 2.08 µM (inactive) | 1.85 µM (inactive) | 3.52 µM (inactive) | 2.18 µM (inactive) | 1.23 µM (inactive) | 2.37 µM (inactive) | 1.97 µM (inactive) | 1.85 µM (inactive) | 3.85 µM (inactive) | 2.31 µM (inactive) | 1.94 µM (inactive) | 1.96 µM (inactive) | 2.14 µM (inactive) | 2.49 µM (inactive) | 1.57 µM (inactive) |  | 5.78 µM (inactive)
